Test results published in patent publication US20090196930A1, “AEROSOLIZED NITRITE AND NITRIC OXIDE -DONATING COMPOUNDS AND USES THEREOF” (Aires Pharmaceuticals, Inc., priority 2007, published 2009).
Like-named read-outs stand apart in the source and are kept apart here. Each block holds one compound with its values, some of them ahead of it.

Tests used:
[1] = cited from earlier work
[2] = NAL DPI formulation, monodose DPI device, in vitro; cited from earlier work
[3] = test system: phenylepherine-induced contractions of aortic rings; experiment: Isolated rat aortic ring relaxation

Compound: O=S(=O)(O)CCNC1CCCCC1 [CHES, 2-(cyclohexylamino)ethanesulfonic acid]
- pKa ([1]; exemplary buffers of Table 2): 9.3

Compound: O=S(=O)(O)CCCN1CCN(CCO)CC1 [EPPS, N-(2-hydroxyethyl)piperazine-N′-(3-propanesulfonic acid)]
- pKa ([1]; exemplary buffers of Table 2): 8.0

Compound: O=S(=O)(O)CC(O)CNC(CO)(CO)CO (centres unmarked) [TAPSO, 2-hydroxy-3-[tris(hydroxymethyl)methylamino]-1-propanesulfonic acid]
- pKa ([1]; exemplary buffers of Table 2): 7.6

Compound: OCC(CO)(CO)NCCCNC(CO)(CO)CO [BIS-TRIS Propane, 1,3-Bis[tris(hydroxymethyl)methylamino]propane]
- pKa ([1]; exemplary buffers of Table 2): 6.8

Compound: L-lysine-N-acetylcysteinate [NAL]
- fine particle fraction (FPF) of the nominal dose [2]: at least 30%

- EC50 ([3]; relaxation of phenylephrine-contracted rat aortic rings, read-out: ED50 (the source's name)): 50 nM
Compound: CCCc1nn(C)c2c(=O)[nH]c(-c3cc(S(=O)(=O)N4CCN(C)CC4)ccc3OCC)nc12 [Sildenafil]
- reduction in phenylepherine-induced aortic constriction ([3]; 50 nM sildenafil): ~50%

Compound: NC(=O)CN(CC(=O)O)CC(=O)O [ADA, N-(2-ametamino)iminodiacetic acid]
- pKa ([1]; exemplary buffers of Table 1): 6.60
- pKa ([1]; exemplary buffers of Table 2): 6.6

Compound: O=S(=O)(O)CCN1CCN(CCS(=O)(=O)O)CC1 [PIPES, Piperazine-N,N′-bis(2-ethanesulfonic acid)]
- pKa ([1]; exemplary buffers of Table 1): 6.76
- pKa ([1]; exemplary buffers of Table 2): 6.8

Compound: O=S(=O)(O)CCN(CCO)CCO [BES, N,N-Bis(2-hydroxyethyl)-2-aminoethanesulfonic acid]
- pKa ([1]; exemplary buffers of Table 2): 7.1

Compound: CC(C)(CO)NCC(O)CS(=O)(=O)O (centres unmarked) [AMPSO, N-(1,1-dimethyl-2-hydroxyethyl)-3-amino-2-hydroxypropane-sulfonic acid]
- pKa ([1]; exemplary buffers of Table 2): 9.0

Compound: O=C(O)CNC(CO)(CO)CO [Tricine]
- pKa ([1]; exemplary buffers of Table 2): 8.1
